# Data reported in article PMC9501377, “New Diarylamine KV10.1 Inhibitors and Their Anticancer Potential” (Pharmaceutics, 2022).
# What was measured:
# [1] = target: T1, KV10.1 (Eag1) (Homo sapiens, UniProt O95259); assay: Whole-cell patch-clamp on stably transfected HEK-293 cells expressing KV10.1; format: cell-based; conditions: HEK293; 50 μM, HEK-293 cells, patch-clamp, mean ± SEM
# T1 construct: expressed in transfected cells; host or cells: HEK-293 (stably transfected)
# T1 sequence (O95259 1-962 isoform O95259-2): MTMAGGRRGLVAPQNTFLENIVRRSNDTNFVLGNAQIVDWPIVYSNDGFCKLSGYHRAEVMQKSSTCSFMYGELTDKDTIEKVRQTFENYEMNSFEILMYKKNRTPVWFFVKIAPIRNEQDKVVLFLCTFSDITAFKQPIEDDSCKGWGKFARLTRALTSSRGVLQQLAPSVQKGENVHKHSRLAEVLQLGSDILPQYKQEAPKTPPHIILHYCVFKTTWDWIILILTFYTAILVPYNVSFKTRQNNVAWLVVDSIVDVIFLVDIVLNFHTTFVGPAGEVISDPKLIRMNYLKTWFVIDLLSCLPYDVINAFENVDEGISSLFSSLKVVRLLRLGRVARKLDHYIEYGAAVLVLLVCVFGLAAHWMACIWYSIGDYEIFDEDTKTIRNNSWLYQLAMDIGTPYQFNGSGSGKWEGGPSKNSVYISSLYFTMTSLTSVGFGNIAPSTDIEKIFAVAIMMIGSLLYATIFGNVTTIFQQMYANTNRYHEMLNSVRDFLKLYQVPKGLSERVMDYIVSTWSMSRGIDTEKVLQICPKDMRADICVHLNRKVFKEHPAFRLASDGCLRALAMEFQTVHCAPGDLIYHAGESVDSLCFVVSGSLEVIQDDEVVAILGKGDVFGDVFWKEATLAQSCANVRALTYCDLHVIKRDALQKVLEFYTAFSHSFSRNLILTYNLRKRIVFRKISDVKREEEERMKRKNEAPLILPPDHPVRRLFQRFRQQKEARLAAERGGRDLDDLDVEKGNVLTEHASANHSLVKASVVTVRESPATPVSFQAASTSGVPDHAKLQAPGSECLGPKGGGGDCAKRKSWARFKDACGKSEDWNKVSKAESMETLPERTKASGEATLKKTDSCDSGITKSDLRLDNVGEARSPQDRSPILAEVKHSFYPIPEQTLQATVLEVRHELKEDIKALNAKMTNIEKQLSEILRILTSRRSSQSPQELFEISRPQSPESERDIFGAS
# Protocol: For whole-cell patch-clamp measurements, stably transfected HEK-293 cells expressing KV10.1 [26, 27, 28] were grown in DMEM with 10% FCS and 300 µg/mL Zeocin on glass coverslips coated with fibronectin. All experiments were conducted at room temperature under perfusion by gravity with extracellular solution (160 mM NaCl, 2.5 mM KCl, 2 mM CaCl2, 1 mM MgCl2, 10 mM Hepes pH 7.4 with NaOH, 8 mM glucose). Pipettes were made from #1 glass capillaries (WPI) and had 1–3 MΩ resistance. The intracellular solution contained 100 mM KCl, 45 mM N-methyl-D-glucamine, 10 mM 1,2-bis(o-aminophenoxy)ethane-N,N,N′,N′-tetraacetic acid (BAPTA), 10 mM Hepes pH 7.35. Stimulation was applied and data were acquired with an EPC10 Plus amplifier (HEKA Elektronik) controlled with Patch Master software. Compounds were applied with an 8-channel fast solution exchanger (ALA). Compounds were prepared to a stock concentration of 10 mM in DMSO. The control solution contained 0.5% DMSO. Stimuli consisted of 500 ms depolarizations to +40 mV.
# All electrophysiological data are presented as means ± SEM of n ≥ 3 independent experiments unless otherwise indicated. Oocyte data were analysed using pClamp Clampfit 10.4 (Molecular Devices, Downingtown, PA, USA) and OriginPro 9 (Originlab, Northampton, MA, USA) or GraphPad Prism 8 software (GraphPad Software, Inc., San Diego, CA, USA). Patch-clamp data analysis was performed using FitMaster (HEKA Electronics), IgorPro (Wavemetrics, Inc., Lake Oswego, OR, USA) and GraphPad Prism 9 (GraphPad Software, Inc., San Diego, CA, USA). The Dunnett test and one-way ANOVA were performed to calculate the significance of the induced inhibition compared to the control (p < 0.05).
# [2] = test system: tumour spheroids of Colo357 cells; set-up: method as in PMID 33808994; conditions: cited from earlier work
structure (smiles),measurement,setting,value
"O=[N+]([O-])c1cc(C(F)(F)F)ccc1Nc1ccc(OCC(O)CN2CCC(O)(COc3ccc(Cl)c(Cl)c3)CC2)cc1 (stereo not shown) [Compound 16a, 4-((3,4-Dichlorophenoxy)methyl)-1-(2-hydroxy-3-(4-((2-nitro-4-(trifluoromethyl)phenyl)amino)phenoxy)propyl)piperidin-4-ol]",inhibition at 50 µM,[1],44.6 ± 8.6%
CN(C)CCCOc1ccc(Nc2ccc(C(F)(F)F)cc2[N+](=O)[O-])cc1 [Compound 2],apoptosis in tumour spheroids of Colo357 cells,[2],induced significant apoptosis
"COc1ccc(OCC2(O)CCN(CC(O)COc3ccc(Nc4ccc(C(F)(F)F)cc4[N+](=O)[O-])cc3)CC2)cc1 (stereo not shown) [Compound 16b, 1-(2-Hydroxy-3-(4-((2-nitro-4-(trifluoromethyl)phenyl)amino)phenoxy)propyl)-4-((4-methoxyphenoxy)methyl)piperidin-4-ol]",inhibition at 50 µM,[1],60.7 ± 9.6%
"O=C(NC1CCN(CC(O)COc2ccc(Nc3ccc(C(F)(F)F)cc3[N+](=O)[O-])cc2)CC1)c1ccc(Cl)c(Cl)c1 (stereo not shown) [Compound 16c, 3,4-Dichloro-N-(1-(2-hydroxy-3-(4-((2-nitro-4-(trifluoromethyl)phenyl)amino)phenoxy)propyl)piperidin-4-yl)benzamide]",inhibition at 50 µM,[1],26.8 ± 10.1%
